Reference: PMC5815658 (Journal of Medicinal Chemistry, 2017)
≈ marks a conversion by molar mass, not a printed value. Entries after “also recorded” stand apart in the source; their conditions may differ. Read-outs that look alike come from different tables or passages of the source.

Legend:
[1] = LogD7.4 determination by RP-HPLC; conditions: pH 7.4
[2] = PDP aqueous stability protocol; conditions: 37 °C, pH 7.4 phosphate buffer
[3] = Chemical stability as solid and in DMSO stock solution; assay type: physicochemical; conditions: room temperature, data not shown
[4] = Kinetic solubility determination by RP-HPLC; conditions: PBS, pH 7.4, aqueous buffer, kinetic from dmso stock
[5] = biological target: T1, CRBN-DDB1 complex (Homo sapiens, UniProt Q96SW2); experiment: CRBN/DDB1 fluorescence polarization competition assay; assay type: binding
T1 construct: His6-ZZ-HRV3C (N); made in house; host or cells: Sf9 insect cells (baculovirus co-infection)
Description: CRBN/DDB1 Fluorescence Polarization Assay […]
Unless otherwise stated, the aqueous assay buffer contained 0.02 M HEPES((4-(2-hydroxyethyl)-1-piperazineethanesulfonic acid)) pH 8.0, 0.15 M NaCl, 0.5 mM TCEP ((tris(2-carboxyethyl)phosphine)), 0.05% Tween 20. The assay was conducted using 384 well black plates (ProxiPlate F Plus, Perkin-Elmer, Massachusetts, USA).
Plate Reader. […] Fluorescence […]
polarization was measured in units of millipolarization (mP) and are background corrected. Data were plotted and analyzed using […]
All experiments were performed in triplicate unless otherwise stated. Values are quoted as the geometric […]
Each graph is a representative example of a single biological repeat unless otherwise stated.
CRBN/DDB1 Protein Expression & Purification
Protein expression and purification methods adapted from Lopez-Girona et al.5 Full length human CRBN (accession number NM016302) was amplified by PCR & inserted downstream of the polyhedrin promoter of a pFBDM expression vector which had been modified to introduce a N-terminal His6-ZZ-HRV3C tag. Full length human DDB1 (accession number NM001923) was amplified by PCR with primers which introduced a C-terminal StrepTag and inserted downstream of the p10 promoter of a separate pFBDM expression vector. Baculoviruses were generated according to Bac-to-Bac protocols (Invitrogen) and used to co-infect Sf9 cells grown @ 27 °C in shaker flasks using Insect-XPRESS media (Lonza). Cells were harvested 48 hours post infection and frozen. For purification, pellets were thawed & resuspended in 5 volumes of Histrap buffer A (see below) and lysed […]
Superdex 200 (HiLoad 26/600), ResourceQ (6 mL) and finally a second Superdex 200 (HiLoad 26/600) column. All columns were from GE Healthcare and all purification steps were performed @ 4 °C. HisTrap buffer A: 50mM Tris (2-Amino-2-(hydroxymethyl)propane-1,3-diol), 500mM NaCl, 0.5mM TCEP ((tris(2-carboxyethyl)phosphine), 5% glycerol, pH 8.0. HisTrap Buffer B: + 250 mM imidazole. Superdex 200 buffer: 50mM Tris, 200mM NaCl, 0.5mM TCEP, 5% glycerol, pH 8.0. Resource Q buffer A: 50mM Tris, 0.5mM TCEP, 5% Glycerol, pH8.0. Resource Q buffer B + 1M NaCl.
California, USA) to prepare CRBN/DDB1 concentrations from 0.1 to 500 nM in 10 µL final assay volume containing 5 nM FP- […]
point prior to analysis. The KD was calculated using non-linear regression and a one-site specific binding model.
Analysis of competition assay FP-probe bound fraction […]
fb=probe bound fraction, KD=probe dissociation constant, L0=probe concentration, R0=protein concentration, Ki=ligand […]
CRBN/DDB1 Competition Assay
Compounds as solutions in DMSO were dispensed using an ECHO 550 Liquid Handler (Labcyte Inc).
Tracer controls (5 nM FP-probe S18 assay buffer only) and bound tracer controls (5 nM and 80 nM CRBN/DDB1) were included on each assay plate . Plates were incubated overnight at 4 °C before warming to room temperature and fluorescence polarization measured using an EnVision plate reader (Perkin -Elmer, Massachusetts, USA). IC 50 values […]
Table S2. CRBN/DDB1 Control Compounds

[6] = biological target: T2, pirin (Homo sapiens, UniProt O00625); experiment: Pirin SPR (surface plasmon resonance) binding
T2 sequence (O00625 1-290): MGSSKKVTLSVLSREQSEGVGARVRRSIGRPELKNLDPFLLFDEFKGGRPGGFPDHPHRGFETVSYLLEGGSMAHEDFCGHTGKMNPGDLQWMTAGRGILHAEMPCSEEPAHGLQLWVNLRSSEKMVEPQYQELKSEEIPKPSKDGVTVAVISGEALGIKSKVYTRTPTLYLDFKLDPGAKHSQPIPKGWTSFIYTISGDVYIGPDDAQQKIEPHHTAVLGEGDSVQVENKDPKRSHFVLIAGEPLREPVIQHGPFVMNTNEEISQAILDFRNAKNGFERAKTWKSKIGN

[7] = biological target: T3, pirin protein in SK-OV-3 human ovarian cancer cells (Homo sapiens, UniProt O00625); experiment: Pirin depletion in SK-OV-3 cells (immunoblot / capillary electrophoresis immunoassay); assay type: cell-based; conditions: SK-OV-3 cells, Figure S18
T3 construct: endogenous in cells; host or cells: SK-OV-3
T3 sequence (O00625 1-290): T2 sequence (O00625 1-290)
Description: in vivo in athymic mice to increase its tumorigenicity and reliability as a xenograft, and used within 10 passages of banked stocks.
(§1) Prior to use, the cells were analyzed by short tandem repeat (STR) profiling. Polymorphic STR loci were amplified using a polymerase chain reaction (PCR) primer set. The PCR product (each locus being labelled with a different fluorophore) was analyzed simultaneously with size standards using automated fluorescent detection. The number of repeats at 10 different loci (as recommended by the American Type Culture Collection, ATCC) was used to define the STR profile and this was cross-referenced with online databases to confirm authenticity. […]
the ATCC reference line (LGC Promochem, UK). […]
nested PCR protocol (Venor GeM kit, Minerva Biolabs, Germany). Cells were grown in DMEM/10 % FCS, 2 mM glutamine and nonessential amino acids in 5 % CO2.
SK-OV-3 cells were treated as for each experimental condition. Cells were harvested and lysed by scraping in urea lysis buffer (20 mM HEPES pH 8.0, 9 M urea, 1 mM sodium orthovanadate, 2.5 mM sodium pyrophosphate, 1 mM β-glycerophosphate). […]
of samples was determined using a bicinchoninic acid (BCA) protein assay kit (Thermo Fisher Scientific). Western blotting was carried out as previously described.10 Pirin and GAPDH antibodies were obtained from Abcam (ab157212) and Merck […]
Samples were treated, harvested and lysed as described above. A total of 5 μL of 0.2 mg/mL protein was loaded into plates and capillary western analysis was carried out according to the manufacturer’s instructions (ProteinSimple WES). The data was analyzed with the Compass software (ProteinSimple).
Sigma-Aldrich and Cell Signaling Technology, respectively.
10 Sharp SY, Boxall K, Rowlands M, Prodromou C, Roe SM, Maloney A, Powers M, Clarke PA, Box G, Sanderson S, Patterson L, Matthews TP, Cheung KM, Ball K, Hayes A, Raynaud F, Marais R, Pearl L, Eccles S, Aherne W, McDonald E, Workman P. In vitro biological characterization of a novel, synthetic diaryl pyrazole resorcinol class of heat shock protein 90 inhibitors.

[8] = biological target: T4, CRBN (Homo sapiens, UniProt Q96SW2); experiment: Rescue of PDP 16 pirin depletion by CRBN-binding competitive ligand in SK-OV-3 cells; assay type: cell-based; conditions: 10 μM, 4 h pretreatment, then PDP 16 (5 nM) 2 h
T4 construct: endogenous in cells; host or cells: SK-OV-3
Description: Cell line: The human ovarian carcinoma cell line (SK-OV-3) was obtained from an ICR collaborator in the 1990s. It was passaged in vivo in athymic mice to increase its tumorigenicity and reliability as a xenograft, and used within 10 passages of banked stocks.
as §1
the ATCC reference line (LGC Promochem, UK). The cells were free of mycoplasma contamination as determined by a sensitive nested PCR protocol (Venor GeM kit, Minerva Biolabs, Germany). […]
Samples were sonicated and centrifuged at 20,000 x g for 15 min and the protein extract (supernatant) collected. The total protein of samples was determined using a bicinchoninic acid (BCA) protein assay kit (Thermo Fisher Scientific). […]
Samples were treated, harvested and lysed as described above. […] The data was analyzed with the Compass software (ProteinSimple). […]

chromatographic logD [1] | Half-life (aqueous stability) [2] | half-life at 100 µM ([2]; phosphate buffer (PBS), pH 7.4, Half-life (aqueous stability)) | Time stable as a solid and in DMSO stock solution [3] | solubility kinetic at 120 min [4] | IC50 ([5]; CRBN/DDB1 FP IC50, single repeat N=2, best-fit value, variable slope four parameters) | IC50 ([5]; best-fit value, variable slope four parameters, read-out: CRBN/DDB1 FP IC50, single repeat N=1) | IC50 ([5]; best-fit value, variable slope four parameters, read-out: CRBN/DDB1 FP IC50, single repeat N=3) | Ki ([5]; calculated from geometric mean CRBN-DDB1 IC50 and FP-probe KD) | IC50 ([5]; column statistics, read-out: CRBN/DDB1 FP pIC50, mean of 3 values (unrounded) (converted)) | IC50 ([5]; displacement of thalidomide derived fluorescent probe, geometric mean n = 3, read-out: CRBN/DDB1 FP IC50) | IC50 ([5]; n = 3 independent biological repeats, read-out: CRBN/DDB1 FP pIC50±SEM (converted)) | Kd ([6]; Pirin SPR KD, equilibrium analysis, one site specific binding model, geometric mean n = 3) | Kd ([6]; Pirin SPR KD, representative single repeat, best-fit value, one site specific binding) | Kd ([6]; Pirin SPR pKD±SEM, n = 3 independent biological repeats) | Measured Rmax/Theoretical Rmax ([6]; SPR) | Compound exposure needed before pirin degradation was observed [7] | Compound | Depletion of intracellular pirin expression ([7]; 3.0 μM total concentration, up to 48 h) | Rescue of pirin depletion by thalidomide pretreatment [8]
1.9 | ~4 h | 246 min | > 1 month | 5 µM (≈ 4.85 µg/mL) | 331 nM | 568 nM | 377 nM | 95 nM | 414 nM | 410 nM | 417 nM | 230 nM | 224 nM | 234 nM | 0.40 | at least 24 h | O=C(COc1cccc2c1C(=O)N(C1CCC(=O)NC1=O)C2=O)NCCOCCC(=O)N1CCN(Cc2ccc3cc(C(=O)Nc4cc(NC(=O)c5ccc6c(c5)OCCO6)ccc4F)ccc3n2)CC1 (stereo not shown) [PDP 10, N-(5-(2,3-Dihydrobenzo[b][1,4]dioxine-6-carboxamido)-2-fluorophenyl)-2-((4-(3-(2-(2-((2-(2,6-dioxopiperidin-3-yl)-1,3-dioxoisoindolin-4-yl)oxy)acetamido)ethoxy)propanoyl)piperazin-1-yl)methyl)quinoline-6-carboxamide] | clear and time-dependent depletion of intracellular pirin expression | 
 |  |  |  |  |  |  |  |  |  |  |  |  |  |  |  |  | O=C1CCC(N2C(=O)c3ccccc3C2=O)C(=O)N1 (stereo not shown) [Thalidomide] |  | rescues pirin protein depletion; also recorded: successfully rescued pirin depletion
